The text below walks through data of patent publication US20070122437A1, “Novel insecticide composition and use thereof particularly for impregnating mosquito nets, fly screens and the like” (priority 2004, published 2007).

Common to all, as to type: in vivo
Test [1] has as its system Aedes aegypti females, a strain resistant to pyrethroids (homozygous for the kdr gene). The test is described as follows: WHO tube test on impregnated paper (KD effect and 24 h mortality), strain resistant to pyrethroids. From the text:
Determination of the LC100 usually takes place according to the standard tube test protocol defined by the World Health Organization (WHO) (6). Briefly, the tube test is composed of an observation tube and an exposure tube (the two tubes are removable) separated by a slide unit equipped with a partition making it possible to obstruct or re-establish the passage between the two tubes. The other end of each tube is sealed by a ventilation plug equipped with a mesh screen. Each tube is lined, for the purposes of the tests, with Whatman paper (standard qualitative filter paper ref 1002 917 or else Whatman N°1) held on the edges by two metal rings. The exposure tube receives paper impregnated with insecticide (impregnated surface on the inside) while the observation tube receives non-impregnated (neutral) paper. In order to impregnate the papers in a homogeneous fashion and to the saturation limit, 2 ml of solution constituted by 0.66 ml of silicone and 1.34 ml of acetone solution are used. For an impregnation at X mg/m^2, the quantity of active ingredient to be deposited on the paper (12 cm×15 cm i.e. 0.018 m^2) is 0.018.X mg of active ingredient (quantity to be adjusted as a function of the degree of purity of the technical product). This quantity of active ingredient is then diluted in 1.34 ml of acetone solution to which 0.66 ml of silicone is then added. The paper dries at ambient temperature, in the dark for 12 hours before the start of the test. […]
The tarsal contact tests were implemented using filter paper (standard qualitative filter paper ref 1002 917 or else Whatman N° 1) impregnated with technical quality products according to the recommendations of the World Health Organization (WHO, 6). […] The mortality and the KD effect resulting from the tarsal contacts with treated filter paper were measured using the adult mosquito test tubes of the WHO. […] For the purpose of comparison with pyrethroids, which are rapid action insecticides, the number of mosquitoes knocked down at the bottom of the tubes was counted at regular intervals of 10 min. […]

Test [2] deals with Aedes aegypti females, strain sensitive to pyrethroids. The test is described as follows: Irritability test (time for first take-off in cone on impregnated paper), strain sensitive to pyrethroids. An excerpt: (§1) In order to evaluate the irritant effect or irritability, an Ae. aegypti female which is not gorged and is from 2 to 5 days old is introduced into a polyethylene cone the bottom of which is an impregnated paper. After an adaptation time of 60 seconds, the time for first take-off is noted and recorded as time for First Take-off (or FT). After 256 seconds, if the mosquito has not taken off, the test is stopped. For each test, the flying activity of 50 females is noted, and each test is repeated three times. The females are sorted into classes according to their time for first take-off and the cumulative first take-off frequencies are used in order to calculate the time at which 50% of the females have taken off (FT50). All the tests take place under controlled conditions, at 27° C.±2 and 80% ±10 humidity.
(§2) The irritability tests were carried out (a female in a cone in contact with the impregnated surface, reading of the time for first take-off after the Ist minute has passed, 50 females per test) according to the following protocol.
Ae. aegypti females which have not fed on blood, from 2 to 5 days old, were introduced individually into plastic cones applied to treated filter papers. After an adaptation time of exactly 60 seconds, the time which has passed between the first landing and the next take-off was defined as being <<the first take-off time>> (FT). The observation was not extended for the rare mosquitoes which had not taken off after 256 seconds. For each test, 50 mosquitoes were tested individually. A simple computer program using the internal clock of a laptop computer was used in order to carry out this test and in order to analyze the results grouping the mosquitoes into classes for time of first take-off. The time at which 50% of the mosquitoes have left the treated surface (median first take-off time, FT50) and its confidence interval at 95% were then determined using the log-probit method.

Test [3] shares this test system. The test is described as follows: WHO tube test on impregnated paper (KD effect and 24 h mortality), strain sensitive to pyrethroids. An excerpt: Determination of the LC100 usually takes place according to the standard tube test protocol defined by the World Health Organization (WHO) (6). Briefly, the tube test is composed of an observation tube and an exposure tube (the two tubes are removable) separated by a slide unit equipped with a partition making it possible to obstruct or re-establish the passage between the two tubes. The other end of each tube is sealed by a ventilation plug equipped with a mesh screen. Each tube is lined, for the purposes of the tests, with Whatman paper (standard qualitative filter paper ref 1002 917 or else Whatman N°1) held on the edges by two metal rings. The exposure tube receives paper impregnated with insecticide (impregnated surface on the inside) while the observation tube receives non-impregnated (neutral) paper. In order to impregnate the papers in a homogeneous fashion and to the saturation limit, 2 ml of solution constituted by 0.66 ml of silicone and 1.34 ml of acetone solution are used. For an impregnation at X mg/m^2, the quantity of active ingredient to be deposited on the paper (12 cm×15 cm i.e. 0.018 m^2) is 0.018.X mg of active ingredient (quantity to be adjusted as a function of the degree of purity of the technical product). This quantity of active ingredient is then diluted in 1.34 ml of acetone solution to which 0.66 ml of silicone is then added. The paper dries at ambient temperature, in the dark for 12 hours before the start of the test. The concentrations are expressed in % of active ingredient relative to the volume of silicone on the paper (as the acetone is volatile).
In order to evaluate the mortality and the KD effect, 25 Ae. aegypti females which are not gorged and are from 2 to 5 days old are introduced into the exposure tube and are left in contact for one hour at 27° C.±2 and 80%±10 humidity. The number of mosquitoes which have fallen to the bottom of the tube is noted every 10 minutes. After 60 minutes, the mosquitoes are transferred into the observation tube, with sugared juice and placed in an incubator at 27° C.±2 and 80% ±10 humidity. The mortality is noted at 24 hours. The time at which 50% of the females are knocked-down (KDT50) as well as its confidence interval are determined using a log-probit analysis (7). Four tubes are tested per solution and each test is repeated three times (triple test method).
The tarsal contact tests were implemented using filter paper (standard qualitative filter paper ref 1002 917 or else Whatman N° 1) impregnated with technical quality products according to the recommendations of the World Health Organization (WHO, 6). The filter papers were treated using solutions of insecticide and/or insect repellent diluted in acetone with silicone oil as support. The impregnation of the paper was carried out with 2 ml of the solutions to be tested, then the paper was dried for 12 h. The mortality and the KD effect resulting from the tarsal contacts with treated filter paper were measured using the adult mosquito test tubes of the WHO. The concentrations were expressed in weight of active ingredient relative to the surface of treated filter paper surface. Batches of 25 Ae. aegypti females which have not fed on blood, from 2 to 5 days old, were introduced into holding tubes and kept for 1 h (adaptation time) at 27±2° C. and 80±10% humidity. The mosquitoes were then transferred into the exposure tube and placed under dimmed light for 1 h. For the purpose of comparison with pyrethroids, which are rapid action insecticides, the number of mosquitoes knocked down at the bottom of the tubes was counted at regular intervals of 10 min. The time at which 50% of the mosquitoes are knocked down (KDT50) and its confidence interval at 95% were then determined using the log-probit method (7). The mortality was recorded after 24 hours of exposure. Each concentration was tested four times and each test was repeated three times with different groups of insects in order to consider inter-batch variability. […]

In test [4] the test system is Aedes aegypti females, a strain resistant to pyrethroids (homozygous for the kdr gene). The test is described as follows: Irritability test (time for first take-off in cone on impregnated paper), strain resistant to pyrethroids. To be noted: 5.1 mg/m^2.
Source text: as §1, with “humidity. […]” for “humidity.”
as §2
Ae. aegypti females which have not fed on blood, from 2 to 5 days old, were introduced individually into plastic cones applied to treated filter papers. […] The time at which 50% of the mosquitoes have left the treated surface (median first take-off time, FT50) and its confidence interval at 95% were then determined using the log-probit method. […]

Where [5] appears, read: sensitive strain, impregnated paper.

Structures are written as SMILES.

Broadly, the mortality is the percentage killed. The low end stands for more survivors, the high end for fewer survivors. In turn, `CNC(=O)Oc1ccccc1OC(C)C` [Propoxur, 2-isopropyloxyphenolmethylcarbamate] displayed a mortality at 3.64 mg/m2 in test [1] of 34.5%. In addition, in test [2] (7.28 mg/m^2 on impregnated paper), the “Irritability FT50” value came to 133.9 s. The same compound displayed a mortality at 7.28 mg/m2 in test [3] (Aedes aegypti) of 34%. The “lethal concentration 30 (LC30)” value in test [3] (setting [5]) was determined as 7.28 mg/m^2.

For `CCN(CC)C(=O)c1cccc(C)c1` [DEET, N,N-diethyl-meta-toluamide], the mortality at 364 mg/m2 in test [1] (364 mg/m^2, 1 h contact, read after 24 h, resistant strain) was found to be 0%; in test [3] (Aedes aegypti, 364 mg/m^2, 1 h contact, read after 24 h, sensitive strain) it was 0%. Further, in test [2] (364 mg/m^2 on impregnated paper), the “Irritability FT50” value amounted to 24.2 s. Further, the “insecticide effect (in words)” value in test [3] (DEET alone, 364 mg/m^2) was “does not itself have any insecticide effect”.

For `CC1(C)[C@H](C(=O)O[C@H](C#N)c2cccc(Oc3ccccc3)c2)[C@@H]1C=C(Br)Br` [deltamethrin], the mortality at 5.1 mg/m2 in test [1] (5.1 mg/m^2, 1 h contact, read after 24 h, resistant strain) was 8%; in test [3] (Aedes aegypti, 5.1 mg/m^2, 1 h contact, read after 24 h, sensitive strain) it was 100%. Further, the “Irritability FT50” value in test [4] worked out at 34.98 s; in test [2] (0.728 mg/m^2 (LC30)) it was 23.9 s; in test [2] (5.1 mg/m^2 (LC100)), 16.9 s. For the same compound, in test [3] (Aedes aegypti, 0.728 mg/m^2, 1 h contact, read after 24 h, sensitive strain), the mortality at 0.728 mg/m2 amounted to 34%. Moreover, the LC100 in test [3] (setting [5]) is given as 5.1 mg/m^2. Besides, in test [3] (setting [5]), the “lethal concentration 30 (LC30)” value was found to be 0.728 mg/m^2.
